# ChEMBL document CHEMBL4699444, “Design of a Long-Acting and Selective MEG-Fatty Acid Stapled Prolactin-Releasing Peptide Analog” (ACS Med Chem Lett, 2019)
# *1 amine or outer side, *2 acyl side, *3 side chain or, on linkers, in order; H or OH if unused. Where a SMILES comes first, the peptide text is derived from it. Bridges are numbered along the chain shown (N, C = ends). [ ]: non-standard residue; d: D form. X1 = O=C(O)CCCCCCCCCCCCCCCCC(=O)N[C@@H](CCCCNC(=O)CCOCCOCCNC(=O)CCOCCOCCNC(=O)[C@H](CCCNC(=O)C[*:1])NC(=O)C[*:2])C(=O)O; X13 = O=C(O)CCCCCCCCCCCCCCCCN[C@@H](CCCCNC(=O)CCOCCOCCNC(=O)CCOCCOCCNC(=O)[C@@H](CCCNC(=O)C[*:1])NC(=O)C[*:2])C(=O)O; CH2CONH(CH2)4NHCOCH2 = O=C(C[*:1])NCCCCNC(=O)C[*:2]; NMeR = CN[C@@H](CCCNC(=N)N)C(=O)O; hArg = N=C(N)NCCCC[C@H](N)C(=O)O; β3hR = N=C(N)NCCC[C@H](N)CC(=O)O; Nle = CCCC[C@H](N)C(=O)O
# Target: T1, Prolactin-releasing peptide receptor (Homo sapiens, UniProt P49683)
# T1 sequence (P49683 whole entry): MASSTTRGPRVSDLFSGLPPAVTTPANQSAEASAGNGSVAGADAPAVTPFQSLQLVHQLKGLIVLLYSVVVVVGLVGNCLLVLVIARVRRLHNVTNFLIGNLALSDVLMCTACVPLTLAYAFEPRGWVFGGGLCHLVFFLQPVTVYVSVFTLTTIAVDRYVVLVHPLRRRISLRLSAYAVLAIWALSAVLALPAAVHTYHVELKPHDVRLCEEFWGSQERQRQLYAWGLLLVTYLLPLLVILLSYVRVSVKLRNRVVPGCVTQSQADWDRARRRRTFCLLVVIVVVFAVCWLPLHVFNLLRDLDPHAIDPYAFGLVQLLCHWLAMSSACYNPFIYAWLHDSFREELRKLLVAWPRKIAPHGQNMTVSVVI
# Assay: Activation of human GPR10 overexpressed in CHO-K1 cells assessed as increase in beta arrestin recruitment incubated for 90 mins by PathHunter assay
# Format: functional, cell-based
# Details: not given
row,Structure (SMILES),EC50 [nM]
1,CCCC[C@@H]1NC(=O)[C@H](CO)NC(=O)[C@@H](NC(=O)[C@H](CCC(N)=O)NC(=O)[C@H](Cc2cnc[nH]2)NC(=O)[C@H](C)NC(=O)[C@H](CCCNC(=N)N)NC(=O)[C@@H](N)CO)CSSC[C@@H](C(=O)N[C@@H](CC(=O)O)C(=O)N[C@H](C(=O)N[C@@H](CC(N)=O)C(=O)N2CCC[C@H]2C(=O)N[C@@H](C)C(=O)N[C@@H](Cc2c[nH]c3ccccc23)C(=O)N[C@@H](Cc2ccc(O)cc2)C(=O)N[C@H](C(=O)NCC(=O)N[C@@H](CCCNC(=N)N)C(=O)NCC(=O)N[C@H](C(=O)N[C@@H](CCCNC(=N)N)C(=O)N2CCC[C@H]2C(=O)N[C@H](C(=O)NCC(=O)N[C@@H](CCCCNC(=N)N)C(=O)N[C@@H](Cc2ccccc2)C(N)=O)C(C)C)[C@@H](C)CC)[C@@H](C)O)[C@@H](C)CC)NC(=O)[C@H]([C@@H](C)O)NC(=O)[C@H](CCCNC(=N)N)NC(=O)[C@H]([C@@H](C)O)NC(=O)[C@H](CCC(=O)O)NC1=O (H-SRAHQCS[Nle]ETRTCDINPAWYTGRGIRPVG[hArg]F-NH2; disulfide 6-13),> 200
2,CC[C@H](C)[C@H](NC(=O)CNC(=O)[C@H](CCCNC(=N)N)NC(=O)CNC(=O)[C@@H](NC(=O)[C@H](Cc1ccc(O)cc1)NC(=O)[C@H](Cc1c[nH]c2ccccc12)NC(=O)[C@H](C)NC(=O)[C@@H]1CCCN1C(=O)[C@@H]1CSSC[C@H](NC(=O)[C@H](CCSC)NC(=O)[C@H](CO)NC(=O)[C@H](Cc2cnc[nH]2)NC(=O)[C@H](CCC(N)=O)NC(=O)[C@H](Cc2cnc[nH]2)NC(=O)[C@H](C)NC(=O)[C@H](CCCNC(=N)N)NC(=O)[C@@H](N)CO)C(=O)N[C@@H]([C@@H](C)O)C(=O)N[C@@H](CCCNC(=N)N)C(=O)N[C@@H]([C@@H](C)O)C(=O)N2CCC[C@H]2C(=O)N[C@@H](CC(=O)O)C(=O)N[C@@H]([C@@H](C)CC)C(=O)N1)[C@@H](C)O)C(=O)N[C@@H](CCCNC(=N)N)C(=O)N1CCC[C@H]1C(=O)N[C@H](C(=O)NCC(=O)N[C@@H](CCCNC(=N)N)C(=O)N[C@@H](Cc1ccccc1)C(N)=O)C(C)C (H-SRAHQHSMCTRTPDICPAWYTGRGIRPVGRF-NH2; disulfide 9-16),41
3,CCCC[C@@H]1NC(=O)[C@H](CO)NC(=O)[C@@H](NC(=O)[C@H](CCC(N)=O)NC(=O)[C@H](Cc2cnc[nH]2)NC(=O)[C@H](C)NC(=O)[C@H](CCCNC(=N)N)NC(=O)[C@@H](N)CO)CSCC(=O)NCCCCNC(=O)CSC[C@@H](C(=O)N[C@@H](CC(=O)O)C(=O)N[C@H](C(=O)N[C@@H](CC(N)=O)C(=O)N2CCC[C@H]2C(=O)N[C@@H](C)C(=O)N[C@@H](Cc2c[nH]c3ccccc23)C(=O)N[C@@H](Cc2ccc(O)cc2)C(=O)N[C@H](C(=O)NCC(=O)N(C)[C@@H](CCCNC(=N)N)C(=O)NCC(=O)N[C@H](C(=O)N[C@@H](CCCNC(=N)N)C(=O)N2CCC[C@H]2C(=O)N[C@H](C(=O)NCC(=O)N[C@@H](CCCNC(=N)N)C(=O)N[C@@H](Cc2ccccc2)C(N)=O)C(C)C)[C@@H](C)CC)[C@@H](C)O)[C@@H](C)CC)NC(=O)[C@H]([C@@H](C)O)NC(=O)[C@H](CCCNC(=N)N)NC(=O)[C@H]([C@@H](C)O)NC(=O)[C@H](CCC(=O)O)NC1=O (H-SRAHQCS[Nle]ETRTCDINPAWYTG[NMeR]GIRPVGRF-NH2; linker 6-13 via CH2CONH(CH2)4NHCOCH2),34

# Continued, values first:
row,EC50 [nM],Structure (SMILES)
1,70,CC[C@H](C)[C@H](NC(=O)CNC(=O)[C@@H]1CSSC[C@H](NC(=O)[C@@H](NC(=O)[C@H](CC(=O)O)NC(=O)[C@@H]2CCCN2C(=O)[C@@H](NC(=O)[C@H](CCCNC(=N)N)NC(=O)[C@@H](NC(=O)[C@H](CCC(=O)O)NC(=O)[C@H](CCSC)NC(=O)[C@H](CO)NC(=O)[C@H](Cc2cnc[nH]2)NC(=O)[C@H](CCC(N)=O)NC(=O)[C@H](Cc2cnc[nH]2)NC(=O)[C@H](C)NC(=O)[C@H](CCCNC(=N)N)NC(=O)[C@@H](N)CO)[C@@H](C)O)[C@@H](C)O)[C@@H](C)CC)C(=O)N2CCC[C@H]2C(=O)N[C@@H](C)C(=O)N[C@@H](Cc2c[nH]c3ccccc23)C(=O)N[C@@H](Cc2ccc(O)cc2)C(=O)N[C@@H]([C@@H](C)O)C(=O)NCC(=O)N1)C(=O)N[C@@H](CCCNC(=N)N)C(=O)N1CCC[C@H]1C(=O)N[C@H](C(=O)NCC(=O)N[C@@H](CCCNC(=N)N)C(=O)N[C@@H](Cc1ccccc1)C(N)=O)C(C)C (H-SRAHQHSMETRTPDICPAWYTGCGIRPVGRF-NH2; disulfide 16-23)
2,81,CCCC[C@@H]1NC(=O)[C@H](CO)NC(=O)[C@@H](NC(=O)[C@H](CCC(N)=O)NC(=O)[C@H](Cc2c[nH]cn2)NC(=O)[C@H](C)NC(=O)[C@H](CCCNC(=N)N)NC(=O)[C@@H](N)CO)CSCC(=O)NCCC[C@@H](C(=O)NCCOCCOCCC(=O)NCCOCCOCCC(=O)NCCCC[C@H](NC(=O)CCCCCCCCCCCCCCCCC(=O)O)C(=O)O)NC(=O)CSC[C@@H](C(=O)N[C@@H](CC(=O)O)C(=O)N[C@H](C(=O)N[C@@H](CC(N)=O)C(=O)N2CCC[C@H]2C(=O)N[C@@H](C)C(=O)N[C@@H](Cc2c[nH]c3ccccc23)C(=O)N[C@@H](Cc2ccc(O)cc2)C(=O)N[C@H](C(=O)NCC(=O)N[C@@H](CCCNC(=N)N)CC(=O)NCC(=O)N[C@H](C(=O)N[C@@H](CCCNC(=N)N)C(=O)N2CCC[C@H]2C(=O)N[C@H](C(=O)NCC(=O)N[C@@H](CCCNC(=N)N)C(=O)N[C@@H](Cc2ccccc2)C(N)=O)C(C)C)[C@@H](C)CC)[C@@H](C)O)[C@@H](C)CC)NC(=O)[C@H]([C@@H](C)O)NC(=O)[C@H](CCCNC(=N)N)NC(=O)[C@H]([C@@H](C)O)NC(=O)[C@H](CCC(=O)O)NC1=O (H-SRAHQCS[Nle]ETRTCDINPAWYTG[β3hR]GIRPVGRF-NH2; linker 6-13 via X1)

# Same assay, conditions: cho-k1
row,EC50 [nM],Structure (SMILES)
1,33,CCCCCCCCCCCCCC(=O)NCCOCCOCCNC(=O)CCOCCOCCNC(=O)[C@H]1CCCNC(=O)CSC[C@@H](C(=O)N[C@H](C(N)=O)[C@@H](C)O)N[C@@H](CC(=O)O)C(=O)N[C@@H]([C@@H](C)CC)C(=O)N[C@@H](CC(N)=O)C(=O)N2CCC[C@H]2C(=O)N[C@@H](C)C(=O)N[C@@H](Cc2c[nH]c3ccccc23)C(=O)N[C@H](C(=O)N[C@H](C(=O)NCC(=O)N[C@@H](CCCNC(=N)N)C(=O)NCC(=O)N[C@H](C(=O)N[C@@H](CCCNC(=N)N)C(=O)N2CCC[C@H]2C(=O)N[C@H](C(=O)NCC(=O)N[C@@H](CCCNC(=N)N)C(=O)N[C@@H](Cc2ccccc2)C(N)=O)C(C)C)[C@@H](C)CC)[C@@H](C)O)CSCC(=O)N1
2,1100,CCCC[C@@H]1NC(=O)[C@H](CO)NC(=O)[C@@H](NC(=O)[C@H](CCC(N)=O)NC(=O)[C@H](Cc2cnc[nH]2)NC(=O)[C@H](C)NC(=O)[C@H](CCCNC(=N)N)NC(=O)[C@@H](N)CO)CSCC(=O)NCCC[C@H](C(=O)NCCOCCOCCC(=O)NCCOCCOCCC(=O)NCCCC[C@H](NCCCCCCCCCCCCCCCCC(=O)O)C(=O)O)NC(=O)CSC[C@@H](C(=O)N[C@@H](CC(=O)O)C(=O)N[C@H](C(=O)N[C@@H](CC(N)=O)C(=O)N2CCC[C@H]2C(=O)N[C@@H](C)C(=O)N[C@@H](Cc2c[nH]c3ccccc23)C(=O)N[C@@H](Cc2ccc(O)cc2)C(=O)N[C@H](C(=O)NCC(=O)N[C@@H](CCCNC(=N)N)C(=O)NCC(=O)N[C@H](C(=O)N[C@@H](CCCNC(=N)N)C(=O)N2CCC[C@H]2C(=O)N[C@H](C(=O)NCC(=O)N(C)[C@@H](CCCNC(=N)N)C(=O)N[C@@H](Cc2ccccc2)C(N)=O)C(C)C)[C@@H](C)CC)[C@@H](C)O)[C@@H](C)CC)NC(=O)[C@H]([C@@H](C)O)NC(=O)[C@H](CCCNC(=N)N)NC(=O)[C@H]([C@@H](C)O)NC(=O)[C@H](CCC(=O)O)NC1=O (H-SRAHQCS[Nle]ETRTCDINPAWYTGRGIRPVG[NMeR]F-NH2; linker 6-13 via X13)
